Series [1] addresses T1, GES-5 (Klebsiella pneumoniae, UniProt Q09HD0).
T1 construct: made in house; host or cells: E. coli BL21(DE3)
The class given is biochemical. As to conditions: reporter substrate, purified recombinant GES-5. As for the experimental part:
For protein expression, competent E. coli BL21(DE3) cells (PROMEGA, Madison, WI, USA) were transformed with recombinant plasmid blaGES-5/pet24a(+) as reported. Protein purification was performed using an Äkta Prime plus chromatograph system (GE Healthcare Life Sciences, Freiburg, Germany). GES-5 (Uniprot ID Q09HD0) was conveniently purified in a single step using a Macro-Prep High Q resin (Bio-Rad, Hercules, CA, USA.).

The target in series [2] is T1, GES-5. In words: GES-5 hydrolysis inhibition, nitrocefin spectrophotometric assay. The class given is biochemical. To be noted: for LE vs. GES-5: ligand efficiency from Ki vs GES-5. As for the experimental part:
(§1) Reactions were monitored using a Jasco V730 spectrophotometer. […] In order to perform spectrophotometric tests, compounds were dissolved in dimethyl sulfoxide (DMSO) to a concentration of 25 mM and stored at −20 °C. […] The reaction was typically initiated by adding GES-5 (2 nM final concentration), previously dialyzed in the reaction buffer. […] For KPC-2 experiments, the protein was obtained, and assays were conducted as previously reported.

The next series has as its target KPC-2 (Klebsiella pneumoniae, UniProt Q9F663). In words: KPC-2 inhibition assay, conducted as previously reported. The class given is biochemical. To be noted: for % inhibition at [1mM] vs KPC-2: 1 mM inhibitor; for Ki: calculated from IC50 by Cheng-Prusoff; for LE vs. KPC-2: ligand efficiency from Ki vs KPC-2. As for the experimental part: as §1
In series [3] the test system is O=C(Cc1cccs1)N[C@@H]1C(=O)N2C(C(=O)O)=C(/C=C/c3ccc([N+](=O)[O-])cc3[N+](=O)[O-])CS[C@H]12. Description: purified protein, by the assay type. To be noted: other: reporter substrate, purified recombinant GES-5.

T1 sequence (Q09HD0 19-287): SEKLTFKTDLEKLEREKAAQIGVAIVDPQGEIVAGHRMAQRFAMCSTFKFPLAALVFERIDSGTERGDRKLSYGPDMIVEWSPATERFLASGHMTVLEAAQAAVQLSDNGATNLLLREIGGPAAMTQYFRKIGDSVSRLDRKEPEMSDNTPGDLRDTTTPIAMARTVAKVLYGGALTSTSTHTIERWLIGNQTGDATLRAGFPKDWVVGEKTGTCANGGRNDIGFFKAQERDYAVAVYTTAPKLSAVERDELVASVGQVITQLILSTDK
Chain of KPC-2 (Q9F663 25-293, looked up, species assumed): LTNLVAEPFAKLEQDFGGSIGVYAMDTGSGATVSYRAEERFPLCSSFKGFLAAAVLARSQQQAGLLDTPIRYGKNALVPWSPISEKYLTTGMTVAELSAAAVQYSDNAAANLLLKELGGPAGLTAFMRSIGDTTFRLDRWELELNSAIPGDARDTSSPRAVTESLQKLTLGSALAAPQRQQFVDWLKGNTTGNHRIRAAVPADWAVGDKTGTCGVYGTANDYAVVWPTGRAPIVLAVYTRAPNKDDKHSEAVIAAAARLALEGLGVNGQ

For the compound `O=C(Cc1cccs1)N[C@@H]1C(=O)N2C(C(=O)O)=C(CSc3ccc([N+](=O)[O-])c(C(=O)O)c3)CS[C@H]12` [CENTA], the Km at GES-5 [1] turned out to be 524 µM.
Take `COc1cc(Br)c(-c2nnn[nH]2)cc1OC` [Compound 8]: at GES-5 [2], the Ki stood at 890 µM and the “LE vs. GES-5” value is reported as 0.89 (0.27) kcal/mol/non-hydrogen atom. In addition, on KPC-2, the “% inhibition at [1mM] vs KPC-2” value is reported as “at least 30%”, the Ki is 350 µM and the “LE vs. KPC-2” value was 0.30 kcal/mol/non-hydrogen atom.
The corresponding values for `O=C(O)c1cccc(S(=O)(=O)Nc2cccnc2)c1` [Compound 12] are 1010 µM, 1.01 (0.22) kcal/mol/non-hydrogen atom, “at least 30%”, 1380 µM and 0.21 kcal/mol/non-hydrogen atom.
In the case of `Nc1nc(=O)n(CC(O)C(=O)O)cc1Br` (centres unmarked) [Compound 13], at GES-5 [2], the Ki was found to be 810 µM. On KPC-2, the “% inhibition at [1mM] vs KPC-2” value is given as “at least 30%”, the Ki is 280 µM and the “LE vs. KPC-2” value is on record as 0.33 kcal/mol/non-hydrogen atom.
Take `COc1ccc2[nH]c(C(=O)O)nc2c1` [Compound 43]: on GES-5 [2], the “% inhibition at [1mM] vs GES-5” value amounted to 41% and the Ki was determined as 660 µM. At KPC-2, the inhibition constant (Ki) was 450 µM and the “LE vs. KPC-2” value is 0.33 kcal/mol/non-hydrogen atom.
GES-5 (Klebsiella pneumoniae): in series [3], the Km stood at 208 µM.

The term Km denotes the substrate concentration at which the rate is half of its maximum. For orientation: Ki means a measure of affinity in units of concentration, obtained from inhibition or displacement. Broadly, the % inhibition is the relative decrease from the control value, in per cent. A lower % inhibition goes with little suppression.

Source of the values: PMC7072645, “Targeting the Class A Carbapenemase GES-5 via Virtual Screening” (Biomolecules, 2020).
